Several values for one entry are separate records, joined by “and”; a condition that tells them apart may be missing. Identical values can stand only once.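 1) Cells in 96-well plates. 2) Compound, 48 h, 5 concentrations. 3) Linear interpolation between surrounding doses. 4) Unreached endpoint = highest concentration. At the GI50, growth is halved. TGI: concentration producing complete growth inhibition.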

These results are taken from PubChem BioAssay (NCI).

Some test systems named below: A498 renal; A549 NSCLC; ACHN renal; EKVX NSCLC; HS 578T breast; LOX IMVI melanoma; NCI-H522 lung; OVCAR-8 ovarian; SK-MEL-2 melanoma; U251 CNS.
Holding throughout (assay): growth of human tumour cells (NCI), 48 h

With `C/C=C/[C@@H]1O[C@H](CC#C[Si](C)(C)C)[C@@]2(C=O)C(C)=CC[C@H](C(C)C)[C@@H]12`, the TGI was 89.6 µM in the assay on A498 renal; 64.5 µM in the assay on A549 NSCLC; 39.9 µM in the assay with ACHN renal; 41 µM in the assay on EKVX NSCLC; more than 100 µM in the assay with HS 578T breast; 18.2 µM in the assay on LOX IMVI melanoma. In addition, the TGI in the assay with NCI-H522 lung is 4.78 µM; in the assay with OVCAR-8 ovarian, more than 100 µM; with SK-MEL-2 melanoma it was 33.5 µM; with U251 CNS, 34.4 µM.
As to `COc1ccc2c(-c3ccc(O)cc3)c(Oc3ccccc3)c(=O)oc2c1`, the TGI in the assay on A498 renal is more than 62 µM; in the assay on A549 NSCLC it was more than 43 µM; in the assay on ACHN renal it was more than 85.9 µM; in the assay with EKVX NSCLC it was more than 77.8 µM; in the assay with HS 578T breast, 99.1 µM; with LOX IMVI melanoma it was more than 100 µM. The TGI in the assay with NCI-H522 lung was more than 100 µM; with OVCAR-8 ovarian it was more than 100 µM; in the assay on SK-MEL-2 melanoma, more than 100 µM; in the assay with U251 CNS, more than 61.5 µM.
For `C=C1CC(CNc2cc(Cl)nc(N)n2)C1`, the TGI with A498 renal is 76.3 µM; in the assay on A549 NSCLC, more than 100 µM; in the assay with ACHN renal it was more than 100 µM; in the assay on EKVX NSCLC it was more than 100 µM; in the assay on HS 578T breast, more than 100 µM; in the assay with LOX IMVI melanoma it was more than 100 µM. The TGI in the assay with NCI-H522 lung, in the assay with OVCAR-8 ovarian, in the assay with SK-MEL-2 melanoma and in the assay on U251 CNS was more than 100 µM in each case.
On to `COc1ncc(C#CC(=O)c2ccccc2OC)c(OC)n1`, for which the TGI in the assay with A498 renal was 35.2 µM; in the assay with A549 NSCLC, 19 µM; in the assay with ACHN renal, 3.27 µM; in the assay on EKVX NSCLC it was 10.3 µM; in the assay on HS 578T breast, more than 32.4 µM; in the assay on LOX IMVI melanoma, 0.794 µM. For the same compound, the TGI in the assay with NCI-H522 lung was found to be 2.21 µM; in the assay on OVCAR-8 ovarian, 5.05 µM; in the assay on SK-MEL-2 melanoma, 6.4 µM; with U251 CNS, 8.33 µM.
For `O=C1NC(N/N=C/C(O)C(O)C(O)C(O)CO)=N/C1=C\c1cccs1` (configuration not stated), the TGI with A498 renal, in the assay on A549 NSCLC, with ACHN renal, with EKVX NSCLC, in the assay on HS 578T breast and with LOX IMVI melanoma was more than 100 µM in each case. Further, the TGI with NCI-H522 lung, in the assay with OVCAR-8 ovarian, in the assay on SK-MEL-2 melanoma and in the assay on U251 CNS was more than 100 µM in each case.
`C=CCC1(O)c2cccc(O)c2C(=O)c2cccc(O)c21` (configuration not stated): the TGI came out at 37 µM in the assay on A498 renal; 88.1 µM with A549 NSCLC; 69.2 µM in the assay on ACHN renal; 60.1 µM in the assay on EKVX NSCLC; 41.8 µM with HS 578T breast; 30.9 µM in the assay with LOX IMVI melanoma. Besides, the TGI was 42 µM in the assay with NCI-H522 lung, more than 100 µM in the assay on OVCAR-8 ovarian, 31.1 µM in the assay with SK-MEL-2 melanoma and 45.5 µM in the assay with U251 CNS.
Regarding `CCOC(=O)/C=C/[C@H](O[Si](c1ccccc1)(c1ccccc1)c1ccccc1)C(C)(C)C`, the TGI with A498 renal, in the assay on A549 NSCLC, in the assay on ACHN renal, in the assay with EKVX NSCLC, in the assay with HS 578T breast and with LOX IMVI melanoma was more than 31.6 µM in each case. Also, the TGI in the assay with NCI-H522 lung, with OVCAR-8 ovarian, with SK-MEL-2 melanoma and with U251 CNS was more than 31.6 µM in each case.
For `C=CC1(CBr)CCC(C(C)(C)Br)O1` (configuration not stated), the TGI worked out at 33.5 µM with A498 renal; 33.9 µM in the assay with A549 NSCLC; 30.2 µM with ACHN renal; 32.1 µM in the assay on EKVX NSCLC; 39.6 µM in the assay with HS 578T breast; 4.34 µM in the assay with LOX IMVI melanoma. Further, the TGI with NCI-H522 lung was determined as 7.14 µM; in the assay on OVCAR-8 ovarian it was 9.45 µM; in the assay with SK-MEL-2 melanoma it was 28.1 µM; in the assay on U251 CNS, 15.9 µM.
Take `CC(C)(N=NC(C)(C)C1=NCCN1)C1=NCCN1`: the TGI in the assay with A498 renal, with A549 NSCLC, in the assay on ACHN renal, with EKVX NSCLC, in the assay with HS 578T breast and with LOX IMVI melanoma was more than 100 µM in each case. Moreover, the TGI was > 100 µM and 60 µM in the assay on NCI-H522 lung; more than 100 µM in the assay with OVCAR-8 ovarian; more than 100 µM in the assay with SK-MEL-2 melanoma; more than 100 µM with U251 CNS. The GI50 in the assay with NCI-H522 lung was 9.38 µM and 21.4 µM.
Consider `C[C@@H]1CCN(C(=O)CC#N)C[C@@H]1N(C)c1ncnc2[nH]ccc12`, for which the GI50 with A498 renal was 23.3 µM; in the assay on A549 NSCLC, more than 100 µM; with ACHN renal, 57.2 µM; with EKVX NSCLC, 17.6 µM; with HS 578T breast, 30.4 µM; in the assay on LOX IMVI melanoma it was more than 100 µM. Moreover, the GI50 in the assay on NCI-H522 lung, with OVCAR-8 ovarian, in the assay on SK-MEL-2 melanoma and in the assay with U251 CNS was more than 100 µM in each case. Besides, the TGI in the assay on A498 renal, in the assay with A549 NSCLC, with ACHN renal, in the assay on EKVX NSCLC, in the assay on HS 578T breast and in the assay on LOX IMVI melanoma was more than 100 µM throughout. The TGI in the assay on NCI-H522 lung, in the assay with OVCAR-8 ovarian, in the assay on SK-MEL-2 melanoma and with U251 CNS was more than 100 µM in each case.
Consider `CCOC(=O)NNC1(SC)NC(=O)c2c(cc(Cl)oc2=O)O1` (configuration not stated), for which the TGI with A498 renal is 29.2 µM; in the assay on A549 NSCLC it was 21.1 µM; in the assay on ACHN renal, 4.79 µM; with EKVX NSCLC, 20.4 µM; with HS 578T breast, 12.3 µM; in the assay with LOX IMVI melanoma, 6.18 µM. Moreover, the TGI came to 6.26 µM in the assay on NCI-H522 lung, 5.56 µM with OVCAR-8 ovarian, 24 µM in the assay on SK-MEL-2 melanoma and 25.5 µM in the assay with U251 CNS.
On to `C/C=C/OC1C(C2COC(C)(C)O2)OC2OC(C)(C)OC21` (configuration not stated), for which the TGI in the assay on A498 renal, with A549 NSCLC, in the assay with ACHN renal, in the assay with EKVX NSCLC, in the assay on HS 578T breast and in the assay on LOX IMVI melanoma was more than 100 µM each time. Further, the TGI with NCI-H522 lung, in the assay on OVCAR-8 ovarian, with SK-MEL-2 melanoma and with U251 CNS was more than 100 µM throughout.
With `CNC=O`, the TGI with A498 renal, with A549 NSCLC, in the assay with ACHN renal, in the assay on EKVX NSCLC, in the assay with HS 578T breast and in the assay on LOX IMVI melanoma was more than 10000 µM throughout. In addition, the TGI with NCI-H522 lung, with OVCAR-8 ovarian, in the assay with SK-MEL-2 melanoma and in the assay on U251 CNS was more than 10000 µM throughout.
For `O=[N+]([O-])c1cccc2nc3ccccc3c(NCCNCCO)c12`, the TGI in the assay on A498 renal is 0.0264 µM; with A549 NSCLC, 0.145 µM and 0.144 µM; with ACHN renal, 0.0422 µM and 0.0311 µM; in the assay with EKVX NSCLC, 0.286 µM and 0.181 µM; in the assay on HS 578T breast it was 0.111 µM; in the assay on LOX IMVI melanoma, 0.0184 µM and 0.112 µM. For the same compound, the TGI is 0.00272 µM with NCI-H522 lung; 0.158 µM and 0.0328 µM in the assay with OVCAR-8 ovarian; 0.00744 µM in the assay with SK-MEL-2 melanoma; 0.0467 µM and 0.0298 µM in the assay with U251 CNS. Also, the GI50 in the assay with EKVX NSCLC is 0.0306 µM.
As to `NNC(=O)CCCCCCCC(=O)O`, the TGI in the assay with A498 renal, in the assay with A549 NSCLC, in the assay with ACHN renal, in the assay on EKVX NSCLC, with HS 578T breast and in the assay on LOX IMVI melanoma was more than 100 µM throughout. Also, the TGI in the assay with NCI-H522 lung, in the assay on OVCAR-8 ovarian, in the assay on SK-MEL-2 melanoma and with U251 CNS was more than 100 µM each time.
For the compound `N#C[C@](CO)(NC(=O)OCc1ccccc1)C(F)F`, the TGI in the assay with A498 renal, with A549 NSCLC, in the assay with ACHN renal, in the assay with EKVX NSCLC, with HS 578T breast and with LOX IMVI melanoma was more than 100 µM each time. Moreover, the TGI in the assay with NCI-H522 lung, with OVCAR-8 ovarian, in the assay with SK-MEL-2 melanoma and in the assay on U251 CNS was more than 100 µM in each case.
On to `O=S(=O)(O)Nc1ccc(-c2nc3ccccc3s2)cc1Cl`, for which the TGI in the assay on A498 renal, with A549 NSCLC, in the assay with ACHN renal, with EKVX NSCLC, in the assay with HS 578T breast and with LOX IMVI melanoma was more than 100 µM each time. Also, the TGI in the assay with NCI-H522 lung, with OVCAR-8 ovarian, in the assay with SK-MEL-2 melanoma and with U251 CNS was more than 100 µM throughout.
Consider `CSCCCNC(=O)c1csc([C@@H](CSC)NC(=O)CCNC(=O)[C@@H](NC(=O)OCC(Br)(Br)Br)C(C)O)n1` (some centres not stated), for which the TGI in the assay on A498 renal, with A549 NSCLC, in the assay with ACHN renal, in the assay with EKVX NSCLC, with HS 578T breast and in the assay with LOX IMVI melanoma was more than 100 µM throughout. Further, the TGI with NCI-H522 lung, in the assay on OVCAR-8 ovarian, in the assay with SK-MEL-2 melanoma and with U251 CNS was more than 100 µM throughout.
